Test results taken from PubChem BioAssay AID270 (DTP/NCI, 2004).
Several values for one entry are separate records, joined by “and”; a condition that tells them apart may be missing. Equal values may be shown once. Records with an inconclusive call do not appear.

Tested on: BDF1 mice, s.c. Lewis lung carcinoma, T/C %
Test: NCI In Vivo Anticancer Drug Screen. Data for tumor model Lewis Lung Carcinoma (subcutaneous) in B6D2F1 (BDF1) mice
How it was run: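 The value reflects a ratio in which the treated cohort's survival time or tumour size is compared against mice receiving only vehicle.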

CC[CH2][Pb]([CH2]CC)([CH2]CC)[O]C(=O)C(Cl)(Cl)Cl
T/C (endpoint: median survival time, dose: 0.19 mg/kg/injection, schedule: Q01DX009 (ip), vehicle: saline with Tween-80, higher = longer survival): 101 % of control | T/C (endpoint: median survival time, dose: 0.38 mg/kg/injection, schedule: Q01DX009 (ip), vehicle: saline with Tween-80, higher = longer survival): 94 % of control | T/C (endpoint: median survival time, dose: 0.75 mg/kg/injection, schedule: Q01DX009 (ip), vehicle: saline with Tween-80, higher = longer survival): 90 % of control | T/C (endpoint: median survival time, dose: 1.5 mg/kg/injection, schedule: Q01DX009 (ip), vehicle: saline with Tween-80, higher = longer survival): 103 % of control | T/C (endpoint: median survival time, dose: 3.0 mg/kg/injection, schedule: Q01DX009 (ip), vehicle: saline with Tween-80, higher = longer survival): 106 % of control | T/C (endpoint: median survival time, dose: 6.0 mg/kg/injection, schedule: Q01DX009 (ip), vehicle: saline with Tween-80, higher = longer survival): 106 % of control

CCN1C=C/C(=C\C=C/c2cc[n+](CC)c3ccccc23)c2ccccc21
T/C (endpoint: median survival time, dose: 6.0 micrograms/kg/injection, schedule: Q01DX009 (ip), vehicle: saline, higher = longer survival): 114 % of control | T/C (endpoint: median survival time, dose: 6.2 micrograms/kg/injection, schedule: Q01DX009 (ip), vehicle: saline with Tween-80, higher = longer survival): 104 % of control | T/C (endpoint: median survival time, dose: 12.0 micrograms/kg/injection, schedule: Q01DX009 (ip), vehicle: saline, higher = longer survival): 209 % of control | T/C (endpoint: median survival time, dose: 12.5 micrograms/kg/injection, schedule: Q01DX009 (ip), vehicle: saline with Tween-80, higher = longer survival): 98 % of control | T/C (endpoint: median survival time, dose: 25.0 micrograms/kg/injection, schedule: Q01DX009 (ip), vehicle: saline with Tween-80, higher = longer survival): 101 % of control | T/C (endpoint: median survival time, dose: 25.0 micrograms/kg/injection, schedule: Q01DX009 (ip), vehicle: saline, higher = longer survival): 208 % of control | T/C (endpoint: median survival time, dose: 50.0 micrograms/kg/injection, schedule: Q01DX009 (ip), vehicle: saline with Tween-80, higher = longer survival): 98 % of control | T/C (endpoint: median survival time, dose: 50.0 micrograms/kg/injection, schedule: Q01DX009 (ip), vehicle: saline, higher = longer survival): 209 % of control | T/C (endpoint: median survival time, dose: 100.0 micrograms/kg/injection, schedule: Q01DX009 (ip), vehicle: saline with Tween-80, higher = longer survival): 104 % of control

CCCOP(=S)(N1CC1)N1CC1
T/C (endpoint: median survival time, dose: 18.75 mg/kg/injection, schedule: Q01DX009 (ip), vehicle: Klucel (hydroxypropylcellulose) (HPC), higher = longer survival): 112 % of control | T/C (endpoint: median survival time, dose: 37.5 mg/kg/injection, schedule: Q01DX009 (ip), vehicle: Klucel (hydroxypropylcellulose) (HPC), higher = longer survival): 95 % of control | T/C (endpoint: median survival time, dose: 75.0 mg/kg/injection, schedule: Q01DX009 (ip), vehicle: Klucel (hydroxypropylcellulose) (HPC), higher = longer survival): 94 % of control | T/C (endpoint: median survival time, dose: 100.0 mg/kg/injection, schedule: Q01DX009 (ip), vehicle: saline, higher = longer survival): 116 % of control

N[C@@H](Cc1ccc(N(CCCl)CCCl)cc1)C(=O)O
T/C (endpoint: mean tumor weight, dose: 0.5 mg/kg/injection, schedule: Q01DX011 (ip), vehicle: saline, higher = larger tumour): 76 % of control | T/C (endpoint: mean tumor weight, dose: 0.8 mg/kg/injection, schedule: Q01DX011 (ip), vehicle: carboxymethylcellulose (CMC), higher = larger tumour): 71 % of control | T/C (endpoint: mean tumor weight, dose: 1.0 mg/kg/injection, schedule: Q01DX011 (ip), vehicle: saline, higher = larger tumour): 46 % of control | T/C (endpoint: mean tumor weight, dose: 1.6 mg/kg/injection, schedule: Q01DX011 (ip), vehicle: carboxymethylcellulose (CMC), higher = larger tumour): 70 % of control | T/C (endpoint: mean tumor weight, dose: 2.0 mg/kg/injection, schedule: Q01DX011 (ip), vehicle: saline, higher = larger tumour): 46 % of control | T/C (endpoint: mean tumor weight, dose: 2.4 mg/kg/injection, schedule: Q01DX011 (ip), vehicle: carboxymethylcellulose (CMC), higher = larger tumour): 68 % of control and 69 % of control | T/C (endpoint: mean tumor weight, dose: 3.6 mg/kg/injection, schedule: Q01DX011 (ip), vehicle: carboxymethylcellulose (CMC), higher = larger tumour): 45 % of control | T/C (endpoint: mean tumor weight, dose: 4.0 mg/kg/injection, schedule: Q01DX011 (ip), vehicle: saline, higher = larger tumour): 21 % of control | T/C (endpoint: mean tumor weight, dose: 5.4 mg/kg/injection, schedule: Q01DX011 (ip), vehicle: carboxymethylcellulose (CMC), higher = larger tumour): 20 % of control | T/C (endpoint: median survival time, dose: 0.04 mg/kg/injection, schedule: Q01DX009 (ip), vehicle: saline, higher = longer survival): 115 % of control | T/C (endpoint: median survival time, dose: 0.08 mg/kg/injection, schedule: Q01DX009 (ip), vehicle: saline, higher = longer survival): 103 % of control | T/C (endpoint: median survival time, dose: 0.31 mg/kg/injection, schedule: Q01DX009 (ip), vehicle: saline, higher = longer survival): 107 % of control | T/C (endpoint: median survival time, dose: 0.5 mg/kg/injection, schedule: Q01DX009 (ip), vehicle: saline with Tween-80, higher = longer survival): 101 % of control | T/C (endpoint: median survival time, dose: 0.5 mg/kg/injection, schedule: Q01DX009 (ip), vehicle: saline, higher = longer survival): 104 % of control and 122 % of control | T/C (endpoint: median survival time, dose: 0.75 mg/kg/injection, schedule: Q01DX009 (ip), vehicle: saline, higher = longer survival): 102 % of control | T/C (endpoint: median survival time, dose: 1.0 mg/kg/injection, schedule: Q01DX009 (ip), vehicle: Klucel (hydroxypropylcellulose) (HPC), higher = longer survival): 107 % of control | T/C (endpoint: median survival time, dose: 1.0 mg/kg/injection, schedule: Q01DX009 (ip), vehicle: saline with Tween-80, higher = longer survival): 108 % of control | T/C (endpoint: median survival time, dose: 1.0 mg/kg/injection, schedule: Q01DX009 (ip), vehicle: saline, higher = longer survival): 107 % of control | T/C (endpoint: median survival time, dose: 1.5 mg/kg/injection, schedule: Q01DX009 (ip), vehicle: saline, higher = longer survival): 93 % of control | T/C (endpoint: median survival time, dose: 2.0 mg/kg/injection, schedule: Q01DX001 (ip), vehicle: saline, higher = longer survival): 106 % of control | T/C (endpoint: median survival time, dose: 2.0 mg/kg/injection, schedule: Q01DX009 (ip), vehicle: Klucel (hydroxypropylcellulose) (HPC), higher = longer survival): 89 % of control | T/C (endpoint: median survival time, dose: 2.0 mg/kg/injection, schedule: Q01DX009 (ip), vehicle: saline with Tween-80, higher = longer survival): 97 % of control | T/C (endpoint: median survival time, dose: 2.5 mg/kg/injection, schedule: Q01DX001 (ip), vehicle: saline, higher = longer survival): 100 % of control | T/C (endpoint: median survival time, dose: 2.5 mg/kg/injection, schedule: Q01DX001 (ip), vehicle: water, higher = longer survival): 90 % of control | T/C (endpoint: median survival time, dose: 3.0 mg/kg/injection, schedule: Q01DX009 (ip), vehicle: saline, higher = longer survival): 116 % of control | T/C (endpoint: median survival time, dose: 4.0 mg/kg/injection, schedule: Q01DX001 (ip), vehicle: saline, higher = longer survival): 100 % of control | T/C (endpoint: median survival time, dose: 4.0 mg/kg/injection, schedule: Q01DX009 (ip), vehicle: Klucel (hydroxypropylcellulose) (HPC), higher = longer survival): 104 % of control | T/C (endpoint: median survival time, dose: 4.0 mg/kg/injection, schedule: Q01DX009 (ip), vehicle: saline, higher = longer survival): 100 % of control and 123 % of control | T/C (endpoint: median survival time, dose: 4.0 mg/kg/injection, schedule: Q04DX003 (ip), vehicle: saline, higher = longer survival): 119 % of control | T/C (endpoint: median survival time, dose: 5.0 mg/kg/injection, schedule: Q01DX001 (ip), vehicle: water, higher = longer survival): 109 % of control | T/C (endpoint: median survival time, dose: 8.0 mg/kg/injection, schedule: Q01DX001 (ip), vehicle: saline, higher = longer survival): 112 % of control | T/C (endpoint: median survival time, dose: 8.0 mg/kg/injection, schedule: Q01DX009 (ip), vehicle: saline, higher = longer survival): 86 % of control | T/C (endpoint: median survival time, dose: 8.0 mg/kg/injection, schedule: Q04DX003 (ip), vehicle: saline, higher = longer survival): 107 % of control | T/C (endpoint: median survival time, dose: 10.0 mg/kg/injection, schedule: Q01DX001 (ip), vehicle: saline, higher = longer survival): 100 % of control | T/C (endpoint: median survival time, dose: 10.0 mg/kg/injection, schedule: Q01DX001 (ip), vehicle: water, higher = longer survival): 104 % of control | T/C (endpoint: median tumor weight (est.), dose: 6.3 mg/kg/injection, schedule: Q01DX001 (ip), vehicle: carboxymethylcellulose (CMC), higher = larger tumour): 41 % of control | T/C (endpoint: median tumor weight (est.), dose: 13.0 mg/kg/injection, schedule: Q01DX001 (ip), vehicle: carboxymethylcellulose (CMC), higher = larger tumour): 39 % of control

CCC1=C(c2cc(Cl)c3ccccc3c2OCC(=O)O)OC(CC)(C(=O)c2cc(Cl)c3ccccc3c2OCC(=O)O)CC1 (configuration not stated)
T/C (endpoint: mean tumor weight, dose: 2.3 mg/kg/injection, schedule: Q01DX011 (ip), vehicle: carboxymethylcellulose (CMC), higher = larger tumour): 82 % of control | T/C (endpoint: mean tumor weight, dose: 3.5 mg/kg/injection, schedule: Q01DX011 (ip), vehicle: carboxymethylcellulose (CMC), higher = larger tumour): 76 % of control

CC(=O)[O][Hg][c]1c(C)c(C)c(C)c(C)c1C
T/C (endpoint: median survival time, dose: 0.62 mg/kg/injection, schedule: Q01DX009 (ip), vehicle: Klucel (hydroxypropylcellulose) (HPC), higher = longer survival): 93 % of control | T/C (endpoint: median survival time, dose: 1.25 mg/kg/injection, schedule: Q01DX009 (ip), vehicle: Klucel (hydroxypropylcellulose) (HPC), higher = longer survival): 93 % of control | T/C (endpoint: median survival time, dose: 2.5 mg/kg/injection, schedule: Q01DX009 (ip), vehicle: Klucel (hydroxypropylcellulose) (HPC), higher = longer survival): 100 % of control | T/C (endpoint: median survival time, dose: 5.0 mg/kg/injection, schedule: Q01DX009 (ip), vehicle: Klucel (hydroxypropylcellulose) (HPC), higher = longer survival): 105 % of control | T/C (endpoint: median survival time, dose: 6.0 mg/kg/injection, schedule: Q01DX009 (ip), vehicle: Klucel (hydroxypropylcellulose) (HPC), higher = longer survival): 92 % of control | T/C (endpoint: median survival time, dose: 6.25 mg/kg/injection, schedule: Q01DX009 (ip), vehicle: Klucel (hydroxypropylcellulose) (HPC), higher = longer survival): 92 % of control

O=NN(CCCl)C(=O)NC1CSCSC1
T/C (endpoint: median survival time, dose: 1.56 mg/kg/injection, schedule: Q01DX009 (ip), vehicle: saline with Tween-80, higher = longer survival): 106 % of control | T/C (endpoint: median survival time, dose: 3.12 mg/kg/injection, schedule: Q01DX009 (ip), vehicle: saline with Tween-80, higher = longer survival): 104 % of control | T/C (endpoint: median survival time, dose: 4.7 mg/kg/injection, schedule: Q04DX004 (ip), vehicle: saline with Tween-80, higher = longer survival): 95 % of control | T/C (endpoint: median survival time, dose: 5.0 mg/kg/injection, schedule: Q01DX001 (ip), vehicle: saline with Tween-80, higher = longer survival): 116 % of control | T/C (endpoint: median survival time, dose: 6.25 mg/kg/injection, schedule: Q01DX009 (ip), vehicle: saline with Tween-80, higher = longer survival): 96 % of control | T/C (endpoint: median survival time, dose: 7.0 mg/kg/injection, schedule: Q01DX001 (ip), vehicle: saline with Tween-80, higher = longer survival): 117 % of control | T/C (endpoint: median survival time, dose: 11.0 mg/kg/injection, schedule: Q04DX004 (ip), vehicle: saline with Tween-80, higher = longer survival): 112 % of control | T/C (endpoint: median survival time, dose: 12.5 mg/kg/injection, schedule: Q01DX009 (ip), vehicle: saline with Tween-80, higher = longer survival): 109 % of control | T/C (endpoint: median survival time, dose: 16.5 mg/kg/injection, schedule: Q04DX004 (ip), vehicle: saline with Tween-80, higher = longer survival): 71 % of control | T/C (endpoint: median survival time, dose: 23.0 mg/kg/injection, schedule: Q01DX001 (ip), vehicle: saline with Tween-80, higher = longer survival): 163 % of control | T/C (endpoint: median tumor weight (est.), dose: 7.3 mg/kg/injection, schedule: Q01DX001 (ip), vehicle: saline with Tween-80, higher = larger tumour): 97 % of control | T/C (endpoint: median tumor weight (est.), dose: 15.0 mg/kg/injection, schedule: Q01DX001 (ip), vehicle: saline with Tween-80, higher = larger tumour): 32 % of control and 40 % of control | T/C (endpoint: median tumor weight (est.), dose: 22.0 mg/kg/injection, schedule: Q01DX001 (ip), vehicle: saline with Tween-80, higher = larger tumour): 8 % of control
